Measured values: ChEMBL document CHEMBL1142107, “The effect of halide salts on the production of Gymnoascus reessii polyenylpyrroles” (J Nat Prod, 2007)

Experiments:
[1] = Cytotoxicity against NS1 cell line up to 15 uM; assay type: cell-based; settings: mouse
[2] = Cytotoxicity against NS1 cell line; assay type: cell-based; settings: mouse

COc1cc(/C(C)=C/C=C/C=C/C=C/c2ccc[nH]2)oc(=O)c1C
Activity [1]: Not Active

COc1cc(/C(C)=C/C=C/C=C/C=C/c2[nH]ccc2Br)oc(=O)c1C
LD99 [2]: 1.9 µM

COc1cc(/C(C)=C/C=C/C=C/C=C/c2[nH]ccc2Cl)oc(=O)c1C
LD99 [2]: 0.034 µM
